Source: patent publication US20250268854A1, “2-AMINO-5,5-DIMETHYLHEXANOIC ACID DERIVATIVES AS SORTILIN MODULATORS FOR USE IN THE TREATMENT OF DISEASE OF THE CENTRAL NERVOUS SYSTEM” (c/o Vesper Bio ApS, priority 2021, published 2025)
Structures can show the parent of a compound that is named as a salt.

Molecular target: h-Sortilin (Homo sapiens (Human), UniProt Q99523)
Test: Neurotensin (NTS) scintillation proximity assay (SPA): displacement of [3H]-neurotensin binding
Settings: 150 nM 6his-Sortilin, 5 nM [3H]-Neurotensin; average of at least 2 determinations
Protocol: The exemplified compounds of the invention were tested in a Neurotensin (NTS) scintillation proximity assay (SPA). NTS, which is a 13 amino acid neuropeptide, is a sortilin ligand. The IC50 is a measure of the amount of the compound required to inhibit the binding of NTS to sortilin by 50%. […] Compound affinity was determined by measuring the displacement of [^3H]-neurotensin binding to h-Sortilin in SPA format. […] IC50 values were calculated by nonlinear regression using the sigmoid concentration-response (variable slope) using CDD Vault software. All values reported are average of at least 2 determinations.

h-Sortilin, sequence (Q99523 78-831): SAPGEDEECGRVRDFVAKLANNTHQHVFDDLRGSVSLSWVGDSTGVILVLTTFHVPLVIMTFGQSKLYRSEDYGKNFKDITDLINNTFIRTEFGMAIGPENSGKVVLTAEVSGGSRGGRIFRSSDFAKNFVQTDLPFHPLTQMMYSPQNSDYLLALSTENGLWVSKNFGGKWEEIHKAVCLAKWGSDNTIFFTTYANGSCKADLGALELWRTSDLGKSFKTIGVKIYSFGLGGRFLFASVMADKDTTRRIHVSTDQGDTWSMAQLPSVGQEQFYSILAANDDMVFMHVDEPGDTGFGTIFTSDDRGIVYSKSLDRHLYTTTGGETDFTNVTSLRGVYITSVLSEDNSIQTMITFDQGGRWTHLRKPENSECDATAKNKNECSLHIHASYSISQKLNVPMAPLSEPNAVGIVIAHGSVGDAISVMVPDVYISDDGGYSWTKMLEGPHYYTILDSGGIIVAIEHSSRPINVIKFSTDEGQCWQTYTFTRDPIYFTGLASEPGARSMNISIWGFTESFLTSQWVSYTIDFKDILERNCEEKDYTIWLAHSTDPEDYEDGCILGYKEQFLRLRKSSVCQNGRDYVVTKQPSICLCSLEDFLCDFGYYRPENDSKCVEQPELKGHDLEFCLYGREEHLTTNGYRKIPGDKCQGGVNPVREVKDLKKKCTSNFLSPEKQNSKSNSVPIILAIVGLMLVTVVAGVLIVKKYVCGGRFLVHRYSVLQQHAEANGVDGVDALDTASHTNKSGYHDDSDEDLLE

| Structure (SMILES) | IC50 |
| --- | --- |
| CC(C)(C)CC[C@H](NCc1cccc2ccncc12)C(=O)O [Example 7, (2S)-2-{[(isoquinolin-8-yl)methyl]amino}-5,5-dimethylhexanoic acid] | 0.95 µM |
| CC(C)(C)CC[C@H](NCc1ccccc1OC(F)(F)F)C(=O)O [Example 10, (2S)-5,5-dimethyl-2-({[2-(trifluoromethoxy)phenyl]methyl}amino)hexanoic acid] | 0.975 µM |
| CC(C)(C)CC[C@H](NCc1ccccc1F)C(=O)O [Example 11, (2S)-2-{[(2-fluorophenyl)methyl]amino}-5,5-dimethylhexanoic acid] | 1.83 µM |
| CC(C)(C)CC[C@H](NCc1c(F)cccc1F)C(=O)O [Example 12, (2S)-2-{[(2,6-difluorophenyl)methyl]amino}-5,5-dimethylhexanoic acid] | 2.84 µM |
| CC(C)(C)CC[C@H](N[C@@H](c1ccccc1)C(F)(F)F)C(=O)O [Example 16, (S)-5,5-dimethyl-2-(((S)-2,2,2-trifluoro-1-phenylethyl)amino)hexanoic acid] | 1.48 µM |
| CC(C)(C)CC[C@H](N[C@H](c1ccccc1)C(F)(F)F)C(=O)O [Example 18, (S)-5,5-dimethyl-2-(((R)-2,2,2-trifluoro-1-phenylethyl)amino)hexanoic acid] | 0.725 µM |
| CC(C)(C)CC[C@H](N[C@H](c1ccccc1)C(F)F)C(=O)O [Example 19, (2S)-2-{[(1R)-2,2-difluoro-1-phenylethyl]amino}-5,5-dimethylhexanoic acid] | 0.565 µM |
| CC(C)(C)CC[C@H](NCc1cc(Cl)cc(Cl)c1)C(=O)O [Example 32, (2S)-2-{[(3,5-dichlorophenyl)methyl]amino}-5,5-dimethylhexanoic acid] | 0.84 µM |
| CC(C)(C)CC[C@H](NCc1ccc2ccccc2n1)C(=O)O [Example 36, (2S)-5,5-dimethyl-2-{[(quinolin-2-yl)methyl]amino}hexanoic acid] | 1.6 µM |
| CC(C)(C)CC[C@H](NCc1cnc2[nH]ccc2c1)C(=O)O [Example 43, (2S)-5,5-dimethyl-2-[({1H-pyrrolo[2,3-b]pyridin-5-yl}methyl)amino]hexanoic acid] | 0.47 µM |
| CC(C)(C)CC[C@H](NCc1cccc2ncccc12)C(=O)O [Example 48, (2S)-5,5-dimethyl-2-{[(quinolin-5-yl)methyl]amino}hexanoic acid] | 1.06 µM |
| COc1ccc2ccccc2c1CN[C@@H](CCC(C)(C)C)C(=O)O [Example 49, (2S)-2-{[(2-methoxynaphthalen-1-yl)methyl]amino}-5,5-dimethylhexanoic acid] | 1.99 µM |
| CC(C)(C)CC[C@H](NCc1cccc(-n2ccnc2)c1)C(=O)O [Example 57, (2S)-2-({[3-(1H-imidazol-1-yl)phenyl]methyl}amino)-5,5-dimethylhexanoic acid] | 1.29 µM |
| Cn1ccc2ccc(CN[C@@H](CCC(C)(C)C)C(=O)O)cc21 [Example 67] | 3.31 µM |
| Cn1ccc2cccc(CN[C@@H](CCC(C)(C)C)C(=O)O)c21 [Example 68] | 1.2 µM |
| CC(C)(C)CC[C@H](NCc1cccnc1)C(=O)O [Example 71, (2S)-5,5-dimethyl-2-{[(pyridin-3-yl)methyl]amino}hexanoic acid] | 1.13 µM |
| CC(C)(C)CC[C@H](NCc1ccc(Cl)cc1)C(=O)O [Example 76, (2S)-2-{[(4-chlorophenyl)methyl]amino}-5,5-dimethylhexanoic acid] | 0.79 µM |
| CC(C)(C)CC[C@H](NCc1cncc(Br)c1)C(=O)O [Example 77, (2S)-2-{[(5-bromopyridin-3-yl)methyl]amino}-5,5-dimethylhexanoic acid] | 0.6 µM |
| COc1ccc(CN[C@@H](CCC(C)(C)C)C(=O)O)c2ccccc12 [Example 79] | 0.95 µM |
| Cc1cccc(CN[C@@H](CCC(C)(C)C)C(=O)O)c1C [Example 83, (2S)-2-{[(2,3-dimethylphenyl)methyl]amino}-5,5-dimethylhexanoic acid] | 0.7 µM |
| COc1ccc2cc(CN[C@@H](CCC(C)(C)C)C(=O)O)ccc2c1 [Example 85] | 1.05 µM |
| COc1cncc(CN[C@@H](CCC(C)(C)C)C(=O)O)c1 [Example 86] | 0.79 µM |

The remaining lines, values ahead:

| IC50 | Structure (SMILES) |
| --- | --- |
| 0.075 µM | Cc1cc(=O)oc2c(CN[C@@H](CCC(C)(C)C)C(=O)O)c(O)ccc12 [Example 1, (S)-2-(((7-hydroxy-4-methyl-2-oxo-2H-chromen-8-yl)methyl)amino)-5,5-dimethylhexanoic acid] |
| 0.66 µM | Cc1cc2cccc(CN[C@@H](CCC(C)(C)C)C(=O)O)c2cn1 [Example 4, (2S)-5,5-dimethyl-2-{[(3-methylisoquinolin-8-yl)methyl]amino}hexanoic acid] |
| 0.27 µM | CC(C)(C)CC[C@H](NC(c1ccccc1)c1ccccc1)C(=O)O [Example 8, (S)-2-(benzhydrylamino)-5,5-dimethylhexanoic acid hydrochloride] |
| 1.02 µM | CC(C)(C)CC[C@H](NCc1ccccc1C(F)(F)F)C(=O)O [Example 13, (2S)-5,5-dimethyl-2-({[2-(trifluoromethyl)phenyl]methyl}amino)hexanoic acid] |
| 0.61 µM | C[C@@H](N[C@@H](CCC(C)(C)C)C(=O)O)c1ccccc1 [Example 14, (S)-5,5-dimethyl-2-(((R)-1-phenylethyl)amino)hexanoic acid hydrochloride] |
| 3.48 µM | C[C@H](N[C@@H](CCC(C)(C)C)C(=O)O)c1ccccc1 [Example 15, (S)-5,5-dimethyl-2-(((S)-1-phenylethyl)amino)hexanoic acid hydrochloride] |
| 1.61 µM | CC(C)(C)CC[C@H](N[C@@H](c1ccccc1)C(F)F)C(=O)O [Example 17, (2S)-2-{[(1S)-2,2-difluoro-1-phenylethyl]amino}-5,5-dimethylhexanoic acid] |
| 1.49 µM | CC(C)(C)CC[C@H](NC1=Nc2ccccc2Oc2ccccc21)C(=O)O [Example 20, (2S)-5,5-dimethyl-2-({2-oxa-9-azatricyclo[9.4.0.0^3,8]pentadeca-1(11),3(8),4,6,9,12,14-heptaen-10-yl}amino)hexanoic acid] |
| 1.38 µM | CC(C)(C)CC[C@H](NCc1cccc(CO)c1)C(=O)O [Example 25, (2S)-2-({[3-(hydroxymethyl)phenyl]methyl}amino)-5,5-dimethylhexanoic acid] |
| 0.71 µM | COc1ccc(CN[C@@H](CCC(C)(C)C)C(=O)O)cc1F [Example 37, (2S)-2-{[(3-fluoro-4-methoxyphenyl)methyl]amino}-5,5-dimethylhexanoic acid] |
| 0.36 µM | CC(C)(C)CC[C@H](NCc1cccc2c1CCCC2)C(=O)O [Example 39, (2S)-5,5-dimethyl-2-{[(5,6,7,8-tetrahydronaphthalen-1-yl)methyl]amino}hexanoic acid] |
| 0.4 µM | CC(C)(C)CC[C@H](NCc1ccc2nccnc2c1)C(=O)O [Example 42, (2S)-5,5-dimethyl-2-{[(quinoxalin-6-yl)methyl]amino}hexanoic acid] |
| 0.85 µM | CC(C)(C)CC[C@H](NCc1ccnc2[nH]ccc12)C(=O)O [Example 44, (2S)-5,5-dimethyl-2-[({1H-pyrrolo[2,3-b]pyridin-4-yl}methyl)amino]hexanoic acid] |
| 1.95 µM | CC(C)(C)CC[C@H](NCc1cccc2cccnc12)C(=O)O [Example 47, (2S)-5,5-dimethyl-2-{[(quinolin-8-yl)methyl]amino}hexanoic acid] |
| 0.32 µM | CC(C)(C)CC[C@H](NCc1ccc2scnc2c1)C(=O)O [Example 51, (2S)-2-{[(1,3-benzothiazol-5-yl)methyl]amino}-5,5-dimethylhexanoic acid] |
| 1.56 µM | Cn1nccc1CN[C@@H](CCC(C)(C)C)C(=O)O [Example 52, (2S)-5,5-dimethyl-2-{[(1-methyl-1H-pyrazol-5-yl)methyl]amino}hexanoic acid] |
| 0.59 µM | CC(C)(C)CC[C@H](NCc1ccc2ncsc2c1)C(=O)O [Example 53, (2S)-2-{[(1,3-benzothiazol-6-yl)methyl]amino}-5,5-dimethylhexanoic acid] |
| 0.87 µM | Cn1ncc2ccc(CN[C@@H](CCC(C)(C)C)C(=O)O)cc21 [Example 54, (2S)-5,5-dimethyl-2-{[(1-methyl-1H-indazol-6-yl)methyl]amino}hexanoic acid] |
| 1.91 µM | CC(C)(C)CC[C@H](NCc1ccccc1-c1ccncc1)C(=O)O [Example 56, (2S)-5,5-dimethyl-2-({[2-(pyridin-4-yl)phenyl]methyl}amino)hexanoic acid] |
| 0.81 µM | CC(C)(C)CC[C@H](NCc1ccncc1)C(=O)O [Example 58, (2S)-5,5-dimethyl-2-{[(pyridin-4-yl)methyl]amino}hexanoic acid] |
| 1.28 µM | CC(C)(C)CC[C@H](NCc1ccccc1CO)C(=O)O [Example 59, (S)-2-((2-(hydroxymethyl)benzyl)amino)-5,5-dimethylhexanoic acid hydrochloride] |
| 2.83 µM | Cn1ncc2c(CN[C@@H](CCC(C)(C)C)C(=O)O)cccc21 [Example 61, (2S)-5,5-dimethyl-2-{[(1-methyl-1H-indazol-4-yl)methyl]amino}hexanoic acid] |
| > 9.98 µM | CC(C)(C)CC[C@H](NCc1cccc2[nH]ccc12)C(=O)O [Example 62, (2S)-2-{[(1H-indol-4-yl)methyl]amino}-5,5-dimethylhexanoic acid] |
| 1.24 µM | Cc1ccc(CN[C@@H](CCC(C)(C)C)C(=O)O)cn1 [Example 72] |
| 0.79 µM | CC(C)(C)CC[C@H](NCc1cncc2ccccc12)C(=O)O [Example 80] |
| 0.79 µM | CC(C)(C)CC[C@H](NCc1cccc2cnccc12)C(=O)O [Example 81] |
| 0.53 µM | COc1cc(CN[C@@H](CCC(C)(C)C)C(=O)O)ccn1 [Example 87] |
| 0.79 µM | CC(C)(C)CC[C@H](NCc1ccnc(Cl)c1F)C(=O)O [Example 89, (2S)-2-{[(2-chloro-3-fluoropyridin-4-yl)methyl]amino}-5,5-dimethylhexanoic acid] |
